Where two headings read alike, the source gives them in different places.
What was measured:
[1] = system: T-cell line DN1; assay type: cell-based, human; conditions: CD1+ APCs (GM-CSF- and IL-4-treated monocytes)
[2] = in vivo; cited from earlier work
[3] = system: peripheral blood monocytes; assay: CD1 expression on cytokine-cultured monocytes, flow cytometry; assay type: cell-based, human; conditions: for expression of CD1a, CD1b and CD1c on monocytes: monocytes cultured with cytokine, 60 hours
[4] = system: T-cell line BDN2; assay type: cell-based, human
[5] = system: T-cell line LDN4; assay: Proliferation of CD1b-restricted line LDN4; assay type: cell-based, human
[6] = system: T-cell line DG.1; assay type: cell-based, human; conditions: CD1+ PBMCs from HLA-DR7 positive individual as APCs
[7] = system: T-cell line DN6; assay: Proliferation assay, CD1c-restricted line DN6; assay type: cell-based, human; conditions: CD1+ APCs
[8] = system: T-cell line OAB8; assay: Proliferation assay, CD8+ TCR αβ+ line OAB8; assay type: cell-based, human; conditions: mycolic acid at 1 μg/ml
[9] = system: T-cell line OGD1; assay: Proliferation assay, TCR γδ+ line OGD1; assay type: cell-based, human; conditions: activated monocytes, 3 day assay
[10] = system: T-cell lines SP-F3, CP.1.15, BK6; assay: Proliferation of further T-cell lines to test mitogenicity (SP-F3, CP.1.15, BK6); assay type: cell-based, human

6,6-trehalose dimycolate
proliferative response of T-cell line DN1 to antigen [1]: stimulated the proliferation
antibody formation [2]: enhance antibody formation
nonspecific immunity to bacterial infections and tumors [2]: stimulate nonspecific immunity

CCCCCCCCCCCCCCCCCCCCCC(=O)OC[C@H]1O[C@H](O[C@H]2O[C@H](COC(=O)CCCCCCCCCCCCCCCCCCCCC)[C@@H](O)[C@H](O)[C@H]2O)[C@H](O)[C@@H](O)[C@@H]1O [trehalose dibehanate]
proliferative response of T-cell line DN1 to antigen [1]: no stimulation

GM-CSF: granulocyte/monocyte colony stimulating factor used alone
expression of CD1a, CD1b and CD1c on monocytes [3]: somewhat less

lipoarabinomannan [LAM]
response of BDN2 to antigen [4]: responded
proliferative response of LDN4 to antigen [5]: proliferated
proliferative response of LDN4 to antigen ([5]; listed as Lep LAM): stimulated
proliferative response of LDN4 to antigen ([5]; listed as native LAM): striking T-cell proliferation

mycolic acid
recognition by T-cell line DG.1 (proliferative response) [6]: recognized only by CD1b-restricted DN1 T-cells
recognition by T-cell line DN6 (proliferative response) [7]: recognized only by CD1b-restricted DN1 T-cells
response of OAB8 to antigen [8]: recognized
response of OGD1 to antigen [9]: recognized
proliferative response of T-cell line DN1 to antigen [1]: recognized
proliferative response of SP-F3, CP.1.15 and BK6 [10]: did not respond
mitogenicity ([10]; six T-cell lines tested): not mitogenic

mycolic acid-arabinogalactan-peptidoglycan [mAGP]
proliferative response of LDN4 to antigen [5]: No response

phosphatidylinositol mannoside [PIM]
proliferative response of LDN4 to antigen [5]: ten-fold more than media alone

B1: Il-10: cytokine strongly expressed in lepromatous lesions (protein, UniProt P22301 19-178, looked up)
Interleukin-10: SPGQGTQSENSCTHFPGNLPNMLRDLRDAFSRVKTFFQMKDQLDNLLLKESLLEDFKGYLGCQALSEMIQFYLEEVMPQAENQDPDIKAHVNSLGENLKTLRLRLRRCHRFLPCENKSKAVEQVKNAFNKLQEKGIYKAMSEFDIFINYIEAYMTMKIRN
inhibition of the expression of CD1 on monocytes ([3]; data not shown): could inhibit

B2: interferon-γ: cytokine, 100 U/ml (protein, UniProt P01579 24-161, looked up)
Interferon gamma: QDPYVKEAENLKKYFNAGHSDVADNGTLFLGILKNWKEESDRKIMQSQIVSFYFKLFKNFKDDQSIQKSVETIKEDMNVKFFNSNKKKRDDFEKLTNYSVTDLNVQRKAIHELIQVMAELSPAAKTGKRKRSQMLFRG
expression of CD1a, CD1b and CD1c on monocytes [3]: did not express significant levels
